Test: healthy volunteer study of flushing on DMF dosing with aspirin pre-treatment
Type: in vivo, human
Conditions: 325 mg non-enteric coated aspirin 30 minutes prior to DMF dosing; healthy volunteers
Description: Subjects receiving a vaccine who experience flushing may be administered (e.g., 30 min. prior to DMF dosing) about 325 mg of aspirin to reduce flushing. Some patients who experience flushing with gastrointestinal side effects may reduce the dose to 120 mg DMF BID temporarily. Within a month, the effective dose of 240 mg DMF BID should be resumed.

For `CC(=O)Oc1ccccc1C(=O)O` [aspirin], the “occurrence and severity of flushing” value was “reduce the occurrence and severity of flushing”.
